We go through 18 compounds from ChEMBL document CHEMBL2303647, “Data associated with the publication PLoS ONE, 8(3), e57888, (2013) PMID: 23505445. Compounds: GSK PKIS; Assays: NIH NCATS”.

Entries after “also recorded” stand apart in the source; their conditions may differ.

In test [1] the target is T1, Coelenterazine h 2-monooxygenase (Renilla reniformis, UniProt P27652).
T1 sequence (P27652 whole entry): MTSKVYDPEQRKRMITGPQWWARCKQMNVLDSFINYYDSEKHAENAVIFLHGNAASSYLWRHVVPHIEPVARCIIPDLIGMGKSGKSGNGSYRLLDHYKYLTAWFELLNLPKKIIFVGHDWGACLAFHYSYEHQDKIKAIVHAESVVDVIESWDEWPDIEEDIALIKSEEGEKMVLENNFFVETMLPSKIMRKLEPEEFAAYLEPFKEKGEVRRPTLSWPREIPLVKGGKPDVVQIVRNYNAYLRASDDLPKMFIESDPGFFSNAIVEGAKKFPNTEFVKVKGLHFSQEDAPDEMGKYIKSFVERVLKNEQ
Description: GSK_PKIS: Inhibition of Sea Pansy Luciferase (Data from PubChem: AID 652015) [NIH NCATS]

The target in test [2] is Luciferin 4-monooxygenase (Photinus pyralis, UniProt P08659).
Chain of Luciferin 4-monooxygenase (P08659 whole entry): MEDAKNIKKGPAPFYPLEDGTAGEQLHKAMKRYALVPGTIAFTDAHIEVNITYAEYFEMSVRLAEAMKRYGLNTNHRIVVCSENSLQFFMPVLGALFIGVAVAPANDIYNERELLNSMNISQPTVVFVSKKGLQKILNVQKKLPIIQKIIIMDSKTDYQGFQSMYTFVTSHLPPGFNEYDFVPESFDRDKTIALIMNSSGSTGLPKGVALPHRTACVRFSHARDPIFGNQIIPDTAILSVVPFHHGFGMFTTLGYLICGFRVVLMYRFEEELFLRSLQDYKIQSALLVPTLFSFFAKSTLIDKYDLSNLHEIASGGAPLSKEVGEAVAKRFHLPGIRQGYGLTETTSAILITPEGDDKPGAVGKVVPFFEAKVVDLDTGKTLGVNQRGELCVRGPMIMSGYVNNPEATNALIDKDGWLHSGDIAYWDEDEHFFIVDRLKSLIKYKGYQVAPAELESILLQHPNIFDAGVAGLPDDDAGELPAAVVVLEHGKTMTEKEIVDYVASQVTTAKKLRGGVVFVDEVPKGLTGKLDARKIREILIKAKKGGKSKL
Description: GSK_PKIS: Inhibition of Firefly Luciferase (Data from PubChem: AID 652016) [NIH NCATS]

In the case of `NS(=O)(=O)c1ccc(Nc2ncc(-c3ccccc3)o2)cc1` [GW572399X], the AC50 entry in test [1] and in test [2] was “Phenotype: Inactive; Curve_Description: None” each time.
Turning to `Nc1nc(-c2ccc3c(c2)C(=Cc2cc(Br)c(O)c(Br)c2)C(=O)N3)cs1` [GW407323A], the values for the concentration at half-maximal activity (AC50) in test [1] (read-out: AC50) and in test [2] (read-out: AC50) were 20.6 µM and 29.1 µM, respectively.
`Nc1ncc(-c2cccc(S(N)(=O)=O)c2)c2scc(-c3ccc(F)c(Cl)c3)c12` [GW856804X]: the concentration at half-maximal activity (AC50) (in general, the concentration at which the activity in the assay is half-maximal) in test [1] (read-out: AC50) was 36.6 µM; in test [2], “Phenotype: Inactive; Curve_Description: None”.
In the case of `Cl.Nc1nccc(-c2c(-c3ccc(F)cc3)ncn2C2CCNCC2)n1`, the concentration at half-maximal activity (AC50) entry is “Phenotype: Inactive; Curve_Description: None; also recorded: Phenotype: Activator; Curve_Description: None” in test [1], “Phenotype: Inactive; Curve_Description: None” in test [2] and 23.1 µM in test [2] (read-out: AC50).
Consider `CCN(CC)Cc1ccc(Nc2nccc(-c3cnn4ncccc34)n2)cc1` [GW780056X], for which the AC50 was 20.6 µM in test [1] (read-out: AC50) and “Phenotype: Inactive; Curve_Description: None” in test [2].
In the case of `CCOc1ccc2c(-c3ccnc(Nc4cccc(C(F)(F)F)c4)n3)cnn2n1` [GW811761X], the AC50 entry in test [1] and in test [2] was “Phenotype: Inactive; Curve_Description: None” each time.
As to `CS(=O)(=O)CCNCc1ccc(-c2ccc3ncnc(Nc4ccc(OCc5ccccc5)cc4)c3c2)o1.Cl` [GW458787A], the AC50 result is “Phenotype: Inactive; Curve_Description: None” in test [1] and 18.3 µM in test [2] (read-out: AC50).
With `N#Cc1ccc(Oc2nccc(-c3c(-c4ccc(F)cc4)ncn3C3CCNCC3)n2)cc1`, the concentration at half-maximal activity (AC50) result in test [1] and in test [2] was “Phenotype: Inactive; Curve_Description: None” in each case.
Regarding `Cl.Oc1cccc(-c2nc(-c3ccccc3)[nH]c2-c2ccncc2)c1`, the concentration at half-maximal activity (AC50) in test [1] (read-out: AC50) is 23.1 µM; in test [2] it was “Phenotype: Inactive; Curve_Description: None”.
Regarding `COc1cc2ncn(-c3cc(OCc4ccccc4C(F)(F)F)c(C(C)=O)s3)c2cc1OC` [GSK-1030059A], the concentration at half-maximal activity (AC50) result in test [1] and in test [2] was “Phenotype: Inactive; Curve_Description: None” throughout.
`COc1cc(Nc2ncc(-c3ccccc3)o2)cc(OC)c1` [GW631581B]: the AC50 entry is “Phenotype: Inactive; Curve_Description: None” in test [1] and 6.51 µM in test [2] (read-out: AC50).
For `CCn1c(-c2nonc2N)nc2cncc(C(=O)N3CCNCC3)c21.Cl`, the results for the concentration at half-maximal activity (AC50) result in test [1] and in test [2] were “Phenotype: Activator; Curve_Description: None” and “Phenotype: Inactive; Curve_Description: None”, respectively.
For `CCc1cccc(NC(=O)Nc2ccc(Oc3ccc4nc(NC(=O)OC)[nH]c4c3)cc2)c1` [GW673715X], the AC50 entry in test [1] is “Phenotype: Inactive; Curve_Description: None”; in test [2] (read-out: AC50), 32.6 µM.
Turning to `COc1c(C(N)=O)cc(-c2ccc(Cl)cc2)cc1-c1ccc(S(N)(=O)=O)cc1` [GSK-711701A], the concentration at half-maximal activity (AC50) result in test [1] was “Phenotype: Inactive; Curve_Description: None”; in test [2] (read-out: AC50), 29.1 µM.
As to `COc1cccc(-n2cnc3c(N/N=C/c4ccncc4)ncnc32)c1` [GW813360X], the figures for the concentration at half-maximal activity (AC50) entry in test [1] and in test [2] (read-out: AC50) were “Phenotype: Inactive; Curve_Description: None” and 16.3 µM, respectively.
On to `CCn1c(-c2nonc2N)nc2c(C#CCN)ncc(OCCCN)c21.O=C(O)C(F)(F)F` [GSK-561866B], for which the figures for the AC50 in test [1] (read-out: AC50) and in test [2] were 23.1 µM and “Phenotype: Inactive; Curve_Description: None”, respectively.
In the same order, the values of `C[C@@H](Oc1cc(-n2cnc3ccc(OCC4CCN(C)CC4)cc32)sc1C(N)=O)c1ccccc1C(F)(F)F` [GSK-326090A] are 25.9 µM and “Phenotype: Inactive; Curve_Description: None”.
Consider `COc1ccc(-c2ccc3c(NC(=O)C4CC4)n[nH]c3n2)cc1`, for which the figures for the concentration at half-maximal activity (AC50) result in test [1] and in test [2] (read-out: AC50) were “Phenotype: Inactive; Curve_Description: None” and 2.31 µM, respectively.
